Assay results: article PMC2686615 (International Immunology, 2009)
Where a SMILES comes first, the peptide text is derived from it.

Biological target: soluble DQ8 proteins (HLA-DQ8, DQA1*0301/DQB1*0302) (Homo sapiens, UniProt P01909+P01920, A209T/A45G/C70Q/D89A/DUP78-78/E183D/E77G/F237L/G63E/H199R/I129T/K197E/L178F/L74F/L98V/Q57E/Q76R/S185I/S97I/T217I/T49S/V73L/Y58L)
Format: binding

Row | SMILES | IC50 [µM]
1 | CC[C@H](C)[C@H](NC(=O)[C@H](C)N)C(=O)N[C@@H](CC(C)C)C(=O)N[C@H](C(=O)N[C@@H](CC(=O)O)C(=O)N[C@@H](C)C(=O)N[C@@H](C)C(=O)N[C@@H](Cc1c[nH]cn1)C(=O)N[C@@H](CC(C)C)C(=O)N[C@@H](CC(C)C)C(=O)N[C@H](C(=O)N[C@@H](CC(=O)O)C(=O)N[C@@H](CC(C)C)C(=O)N[C@H](C(=O)O)[C@@H](C)O)[C@@H](C)CC)[C@@H](C)O [ZnT8 98–111] (H-AILTDAAHLLIDLT-OH) | 7.2
2 | CC[C@H](C)[C@H](NC(=O)[C@H](CCC(=O)O)NC(=O)[C@H](C)NC(=O)[C@H](CCCNC(=N)N)NC(=O)[C@H](Cc1ccc(O)cc1)NC(=O)[C@H](Cc1c[nH]c2ccccc12)NC(=O)CNC(=O)[C@H](Cc1ccccc1)NC(=O)[C@@H](NC(=O)[C@H](CC(C)C)NC(=O)[C@H](CCCNC(=N)N)NC(=O)[C@H](CCCCN)NC(=O)[C@@H](N)CO)[C@@H](C)O)C(=O)N[C@@H](CC(C)C)C(=O)O [ZnT8 128–141] (H-SKRLTFGWYRAEIL-OH) | 20.2
3 | CC[C@H](C)[C@H](NC(=O)CNC(=O)[C@H](C)NC(=O)[C@H](CCC(N)=O)NC(=O)[C@@H](NC(=O)[C@H](CCC(N)=O)NC(=O)[C@H](Cc1ccc(O)cc1)NC(=O)[C@H](CC(=O)O)NC(=O)[C@@H]1CCCN1C(=O)[C@H](Cc1ccc(O)cc1)NC(=O)[C@@H](N)CC(C)C)[C@@H](C)CC)C(=O)N[C@@H](CCSC)C(=O)N[C@H](C(=O)N[C@H](C(=O)O)[C@@H](C)O)[C@@H](C)CC [ZnT8 166–179] (H-LYPDYQIQAGIMIT-OH) | 0.7
4 | CC[C@H](C)[C@H](NC(=O)[C@H](Cc1c[nH]cn1)NC(=O)[C@H](CC(C)C)NC(=O)[C@H](CO)NC(=O)[C@H](Cc1c[nH]cn1)NC(=O)[C@@H](NC(=O)[C@H](CO)NC(=O)[C@@H](NC(=O)[C@@H](NC(=O)CNC(=O)[C@H](CC(=O)O)NC(=O)[C@@H](NC(=O)[C@H](C)N)C(C)C)C(C)C)[C@@H](C)CC)C(C)C)C(=O)N[C@@H](Cc1c[nH]c2ccccc12)C(=O)O [ZnT8 292–305] (H-AVDGVISVHSLHIW-OH) | 18
5 | CC[C@H](C)[C@H](N)C(=O)N[C@@H](CC(C)C)C(=O)N[C@@H](CO)C(=O)N[C@H](C(=O)N[C@@H](Cc1c[nH]cn1)C(=O)N[C@H](C(=O)N[C@@H](C)C(=O)N[C@H](C(=O)N[C@@H](C)C(=O)N[C@@H](C)C(=O)N[C@@H](CO)C(=O)N[C@@H](CCC(N)=O)C(=O)N[C@@H](CC(=O)O)C(=O)N[C@@H](CO)C(=O)O)[C@@H](C)O)C(C)C)C(C)C [ZnT8 313–326] (H-ILSVHVATAASQDS-OH) | 4.9
6 | CC[C@H](C)[C@H](NC(=O)CNC(=O)[C@@H](NC(=O)[C@@H](N)CCCNC(=N)N)[C@@H](C)O)C(=O)N[C@@H](C)C(=O)N[C@@H](CCC(N)=O)C(=O)N[C@@H](C)C(=O)N[C@@H](CC(C)C)C(=O)N[C@@H](CO)C(=O)N[C@@H](CO)C(=O)N[C@@H](Cc1ccccc1)C(=O)N[C@@H](CC(=O)O)C(=O)N[C@@H](CC(C)C)C(=O)N[C@@H](Cc1c[nH]cn1)C(=O)O [ZnT8 330–343] (H-RTGIAQALSSFDLH-OH) | 2.5
7 | CC[C@H](C)[C@H](NC(=O)[C@H](CCC(N)=O)NC(=O)[C@@H](NC(=O)[C@@H](NC(=O)[C@@H](N)CC(C)C)[C@@H](C)O)[C@@H](C)CC)C(=O)N[C@@H](CCC(=O)O)C(=O)N[C@@H](CO)C(=O)N[C@@H](C)C(=O)N[C@@H](C)C(=O)N[C@@H](CC(=O)O)C(=O)N[C@@H](CCC(N)=O)C(=O)N[C@@H](CC(=O)O)C(=O)N1CCC[C@H]1C(=O)N[C@@H](CO)C(=O)O [ZnT8 345–358] (H-LTIQIESAADQDPS-OH) | 2.5
